# Assays:
# Type in all cases: biochemical
# Conditions in all cases: agonist; pH 7.4 (calcium); GTPγS binding at 1 μM ligand, 30°C; dose-response curves only in figures
# hBLT2 [1] = target: T1, hBLT2 (Homo sapiens, UniProt Q9NPC1)
# T1 construct: gene LTB4R2; also HEK293 with Gq/i1
# T1 sequence (Q9NPC1 1-358): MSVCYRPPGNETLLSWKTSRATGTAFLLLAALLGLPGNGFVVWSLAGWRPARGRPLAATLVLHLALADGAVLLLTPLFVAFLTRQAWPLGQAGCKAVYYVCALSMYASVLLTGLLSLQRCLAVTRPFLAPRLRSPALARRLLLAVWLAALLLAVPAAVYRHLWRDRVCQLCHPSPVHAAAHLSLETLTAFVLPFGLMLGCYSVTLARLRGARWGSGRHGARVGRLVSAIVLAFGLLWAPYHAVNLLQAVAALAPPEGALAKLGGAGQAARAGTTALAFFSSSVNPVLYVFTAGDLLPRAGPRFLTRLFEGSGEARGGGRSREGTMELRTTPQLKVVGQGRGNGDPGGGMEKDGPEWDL
# zebrafish Blt2a = target: T2, zebrafish Blt2a (Danio rerio, UniProt A0A0A8JZN4); assay: calcium mobilization (Fluo-8), […]GTPγS binding, TGFα shedding
# T2 construct: gene ltb4r2a; also HEK293 with Gq/i1; LC009450 assigned by order of listing
# T2 sequence (A0A0A8JZN4 1-382): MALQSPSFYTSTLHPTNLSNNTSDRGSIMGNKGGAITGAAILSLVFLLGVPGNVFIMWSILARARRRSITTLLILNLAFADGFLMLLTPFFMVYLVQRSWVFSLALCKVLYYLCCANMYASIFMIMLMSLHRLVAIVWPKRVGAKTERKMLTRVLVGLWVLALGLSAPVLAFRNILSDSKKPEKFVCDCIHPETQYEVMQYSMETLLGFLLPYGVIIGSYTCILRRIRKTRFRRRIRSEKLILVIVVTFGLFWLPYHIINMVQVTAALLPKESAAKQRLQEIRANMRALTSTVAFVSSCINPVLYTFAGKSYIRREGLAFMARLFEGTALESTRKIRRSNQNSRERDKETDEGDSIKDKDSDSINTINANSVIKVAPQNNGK
# zebrafish Blt2b [2] = target: T3, zebrafish Blt2b (Danio rerio, UniProt E7F4K9); assay: as above
# T3 construct: gene ltb4r2b; also HEK293 with Gq/i1; LC009451 assigned by order of listing
# T3 sequence (E7F4K9 1-339): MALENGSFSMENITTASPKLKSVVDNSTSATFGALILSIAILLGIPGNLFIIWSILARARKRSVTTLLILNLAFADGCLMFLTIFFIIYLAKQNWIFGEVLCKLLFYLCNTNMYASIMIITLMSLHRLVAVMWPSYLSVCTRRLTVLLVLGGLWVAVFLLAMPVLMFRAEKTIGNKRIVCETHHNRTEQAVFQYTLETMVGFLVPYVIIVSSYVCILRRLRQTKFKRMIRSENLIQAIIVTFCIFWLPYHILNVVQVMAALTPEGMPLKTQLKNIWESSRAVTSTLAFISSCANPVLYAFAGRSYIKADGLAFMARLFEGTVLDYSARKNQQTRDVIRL
# hBLT1 = target: T4, hBLT1 (Homo sapiens, UniProt Q15722); assay: calcium mobilization (Fluo-8), […]GTPγS binding, cAMP inhibition, TGFα shedding
# T4 construct: gene LTB4R; also HEK293 with Gq/i1
# zebrafish Blt1 = target: T5, zebrafish Blt1 (Danio rerio, UniProt A0A0A8JWS4); assay: as above
# T5 construct: gene ltb4r; also HEK293 with Gq/i1
# T5 sequence (A0A0A8JWS4 1-380): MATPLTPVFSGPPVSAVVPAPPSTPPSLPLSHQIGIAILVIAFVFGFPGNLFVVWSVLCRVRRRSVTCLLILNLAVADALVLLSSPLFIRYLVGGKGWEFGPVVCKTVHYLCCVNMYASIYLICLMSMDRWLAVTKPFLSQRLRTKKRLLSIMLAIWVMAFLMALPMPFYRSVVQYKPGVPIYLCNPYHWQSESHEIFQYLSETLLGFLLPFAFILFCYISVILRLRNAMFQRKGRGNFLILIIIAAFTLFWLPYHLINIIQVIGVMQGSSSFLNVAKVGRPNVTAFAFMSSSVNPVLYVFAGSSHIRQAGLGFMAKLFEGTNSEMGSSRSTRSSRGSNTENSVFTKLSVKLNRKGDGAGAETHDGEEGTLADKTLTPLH
# zebrafish Blt2b [3] = target: T3, zebrafish Blt2b; assay: as above
# hBLT2 [4] = target: T1, hBLT2; assay: as above
# T4 sequence (Q15722 whole entry): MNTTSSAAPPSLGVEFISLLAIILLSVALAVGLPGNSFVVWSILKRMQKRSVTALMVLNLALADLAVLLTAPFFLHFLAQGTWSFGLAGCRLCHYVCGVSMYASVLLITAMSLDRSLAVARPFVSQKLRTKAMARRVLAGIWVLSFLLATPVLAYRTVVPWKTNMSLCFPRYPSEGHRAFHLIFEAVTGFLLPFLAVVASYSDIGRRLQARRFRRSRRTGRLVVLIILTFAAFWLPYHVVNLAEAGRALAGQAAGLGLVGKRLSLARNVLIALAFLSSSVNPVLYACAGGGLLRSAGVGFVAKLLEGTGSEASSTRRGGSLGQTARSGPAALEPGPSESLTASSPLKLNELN
Structure (SMILES),"calcium mobilization (Fluo-8), [35S]GTPγS binding, TGFα shedding (hBLT2 [1])","calcium mobilization (Fluo-8), [35S]GTPγS binding, TGFα shedding (zebrafish Blt2a)","calcium mobilization (Fluo-8), [35S]GTPγS binding, TGFα shedding (zebrafish Blt2b [2])","calcium mobilization (Fluo-8), [35S]GTPγS binding, cAMP inhibition, TGFα sheddin (hBLT1)","calcium mobilization (Fluo-8), [35S]GTPγS binding, cAMP inhibition, TGFα sheddin (zebrafish Blt1)","calcium mobilization (Fluo-8), [35S]GTPγS binding, cAMP inhibition, TGFα sheddin (zebrafish Blt2b [3])","calcium mobilization (Fluo-8), [35S]GTPγS binding, cAMP inhibition, TGFα sheddin (hBLT2 [4])"
CCCCC/C=C\C[C@@H](O)/C=C/C=C/C=C\[C@@H](O)CCCC(=O)O [LTB4],exhibited a dose-dependent increase in response to either 12-HHT or LTB4 stimulation,exhibited a dose-dependent increase in response to either 12-HHT or LTB4 stimulation,exhibited a dose-dependent increase in response to either 12-HHT or LTB4 stimulation,intracellular free calcium concentration increased in a dose-dependent manner in response to LTB4 stimulation,intracellular free calcium concentration increased in a dose-dependent manner in response to LTB4 stimulation,,
"CCCCC[C@H](O)/C=C/C=C/C/C=C\CCCC(=O)O [12-HHT, 12(S)-hydroxy-5-cis-8,10-trans-heptadecatrienoic acid]",,,,,,12-HHT activated zebrafish Blt2a and Blt2b at lower doses than LTB4,exhibited a dose-dependent increase in response to either 12-HHT or LTB4 stimulation
